{"source": "PubChem BioAssay AID1963840", "about": "(Molecular Pharmacology Branch, DTP, NCI, 2024);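 note: spheroids exposed to compounds for seven days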;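 for viability, T/C: 100% = DMSO vehicle control viability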", "system": "695427-040-R-J1-PDC complex spheroid viability", "experiment": "Anticancer human tumor 695427-040-R-J1-PDC patient-derived colon adenocarcinoma cell line growth inhibition [POLQ]", "settings": "for IC50: curve of first compound; for viability, T/C: stronger effect = lower value", "method_in_brief": "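Three-cell-type spheroids modelling solid tumor plus stroma served as the readout system; POL inhibitors were tested individually and in combination, concentration ranges set by clinical Cmax where known.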", "data": [{"smiles": "CC[C@@]1(O)C(=O)OCc2c1cc1n(c2=O)Cc2cc3c(CN(C)C)c(O)ccc3nc2-1", "note": "+ COC1C(OC(N)=O)C(O)C(Oc2ccc3c(O)c(NC(=O)c4ccc(O)c(CC=C(C)C)c4)c(=O)oc3c2C)OC1(C)C", "values": [{"measurement": "IC50", "setting": "second compound 0.0316 µM", "result": "> 100", "unit": "nM"}, {"measurement": "IC50", "setting": "second compound 0.1 µM", "result": "> 100", "unit": "nM"}, {"measurement": "IC50", "setting": "second compound 0.316 µM", "result": "> 100", "unit": "nM"}, {"measurement": "IC50", "setting": "second compound 1 µM", "result": "> 100", "unit": "nM"}, {"measurement": "IC50", "setting": "second compound 3.16 µM", "result": "> 100", "unit": "nM"}, {"measurement": "IC50", "setting": "second compound 10 µM", "result": "> 100", "unit": "nM"}, {"measurement": "viability, T/C", "setting": "second compound 0.0316 µM, first compound 0.000316 µM", "result": 103, "unit": "%"}, {"measurement": "viability, T/C", "setting": "second compound 0.0316 µM, first compound 0.001 µM", "result": 96.8, "unit": "%"}, {"measurement": "viability, T/C", "setting": "second compound 0.0316 µM, first compound 0.00316 µM", "result": 97.8, "unit": "%"}, {"measurement": "viability, T/C", "setting": "second compound 0.0316 µM, first compound 0.01 µM", "result": 103, "unit": "%"}, {"measurement": "viability, T/C", "setting": "second compound 0.0316 µM, first compound 0.0316 µM", "result": 100, "unit": "%"}, {"measurement": "viability, T/C", "setting": "second compound 0.0316 µM, first compound 0.1 µM", "result": 95.1, "unit": "%"}, {"measurement": "viability, T/C", "setting": "second compound 0.1 µM, first compound 0.000316 µM", "result": 116, "unit": "%"}, {"measurement": "viability, T/C", "setting": "second compound 0.1 µM, first compound 0.001 µM", "result": 104, "unit": "%"}, {"measurement": "viability, T/C", "setting": "second compound 0.1 µM, first compound 0.00316 µM", "result": 101, "unit": "%"}, {"measurement": "viability, T/C", "setting": "second compound 0.1 µM, first compound 0.01 µM", "result": 102, "unit": "%"}, {"measurement": "viability, T/C", "setting": "second compound 0.1 µM, first compound 0.0316 µM", "result": 104, "unit": "%"}, {"measurement": "viability, T/C", "setting": "second compound 0.1 µM, first compound 0.1 µM", "result": 99.5, "unit": "%"}, {"measurement": "viability, T/C", "setting": "second compound 0.316 µM, first compound 0.000316 µM", "result": 102, "unit": "%"}, {"measurement": "viability, T/C", "setting": "second compound 0.316 µM, first compound 0.001 µM", "result": 102, "unit": "%"}, {"measurement": "viability, T/C", "setting": "second compound 0.316 µM, first compound 0.00316 µM", "result": 106, "unit": "%"}, {"measurement": "viability, T/C", "setting": "second compound 0.316 µM, first compound 0.01 µM", "result": 104, "unit": "%"}, {"measurement": "viability, T/C", "setting": "second compound 0.316 µM, first compound 0.0316 µM", "result": 105, "unit": "%"}, {"measurement": "viability, T/C", "setting": "second compound 0.316 µM, first compound 0.1 µM", "result": 92.4, "unit": "%"}, {"measurement": "viability, T/C", "setting": "second compound 1 µM, first compound 0.000316 µM", "result": 108, "unit": "%"}, {"measurement": "viability, T/C", "setting": "second compound 1 µM, first compound 0.001 µM", "result": 102, "unit": "%"}, {"measurement": "viability, T/C", "setting": "second compound 1 µM, first compound 0.00316 µM", "result": 99.6, "unit": "%"}, {"measurement": "viability, T/C", "setting": "second compound 1 µM, first compound 0.01 µM", "result": 98.1, "unit": "%"}, {"measurement": "viability, T/C", "setting": "second compound 1 µM, first compound 0.0316 µM", "result": 106, "unit": "%"}, {"measurement": "viability, T/C", "setting": "second compound 1 µM, first compound 0.1 µM", "result": 93.1, "unit": "%"}, {"measurement": "viability, T/C", "setting": "second compound 3.16 µM, first compound 0.000316 µM", "result": 97.2, "unit": "%"}, {"measurement": "viability, T/C", "setting": "second compound 3.16 µM, first compound 0.001 µM", "result": 101, "unit": "%"}, {"measurement": "viability, T/C", "setting": "second compound 3.16 µM, first compound 0.00316 µM", "result": 103, "unit": "%"}, {"measurement": "viability, T/C", "setting": "second compound 3.16 µM, first compound 0.01 µM", "result": 97.2, "unit": "%"}, {"measurement": "viability, T/C", "setting": "second compound 3.16 µM, first compound 0.0316 µM", "result": 105, "unit": "%"}, {"measurement": "viability, T/C", "setting": "second compound 3.16 µM, first compound 0.1 µM", "result": 86, "unit": "%"}, {"measurement": "viability, T/C", "setting": "second compound 10 µM, first compound 0.000316 µM", "result": 107, "unit": "%"}, {"measurement": "viability, T/C", "setting": "second compound 10 µM, first compound 0.001 µM", "result": 103, "unit": "%"}, {"measurement": "viability, T/C", "setting": "second compound 10 µM, first compound 0.00316 µM", "result": 105, "unit": "%"}, {"measurement": "viability, T/C", "setting": "second compound 10 µM, first compound 0.01 µM", "result": 106, "unit": "%"}, {"measurement": "viability, T/C", "setting": "second compound 10 µM, first compound 0.0316 µM", "result": 105, "unit": "%"}, {"measurement": "viability, T/C", "setting": "second compound 10 µM, first compound 0.1 µM", "result": 93, "unit": "%"}]}]}
